These results are taken from ChEMBL document CHEMBL1128754, “The SAR of 6-(N-alkyl-N-acyl)-2-propyl-3-[(2-tetrazol-5-yl)biphen-4-yl)methyl]-quinazolinones as balanced affinity antagonists of the human AT1 and AT2 receptors” (Bioorg Med Chem Lett, 1995).

The species entered for series [1] is Rattus norvegicus. The settings on record: dose 1 mg/kg; route intravenous.
Series [2] addresses T1, Angiotensin II receptor (Homo sapiens) (UniProt P30556+P50052). The experiment in a line: Ratio of receptor binding affinity AT2/AT1 in human adrenal tissue in th+e presence of 2 mg/ml bovine serum albumin. The format is protein assay.
Series [3] has as its target T2, Type-1 angiotensin II receptor (Oryctolagus cuniculus, UniProt P34976).
T2 sequence (P34976 whole entry): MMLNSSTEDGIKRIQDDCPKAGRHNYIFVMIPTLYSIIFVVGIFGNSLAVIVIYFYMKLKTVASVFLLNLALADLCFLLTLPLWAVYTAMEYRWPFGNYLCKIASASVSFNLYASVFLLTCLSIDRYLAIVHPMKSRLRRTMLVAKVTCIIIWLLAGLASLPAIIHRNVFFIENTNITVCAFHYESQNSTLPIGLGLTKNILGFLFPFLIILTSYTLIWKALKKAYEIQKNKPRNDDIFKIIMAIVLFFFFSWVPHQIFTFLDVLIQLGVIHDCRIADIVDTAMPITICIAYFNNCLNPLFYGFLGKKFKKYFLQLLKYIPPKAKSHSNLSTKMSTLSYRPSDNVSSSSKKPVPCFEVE
The series is described as follows: biochemical.
Description: Binding affinity against AT1 receptor in rabbit aorta

The species entered for series [4] is Rattus norvegicus. Particulars: dose 1 mg/kg; route oral.
Series [5] deals with T3, Type-1 angiotensin II receptor (Homo sapiens, UniProt P30556).
T3 sequence (P30556 whole entry): T2 sequence (P34976 whole entry) with M2I, A49V, V254I, V270I, H272R, K311R, S349T, V353A
The experiment in a line: biochemical.
Description: Binding affinity against AT1 receptor in human adrenal tissue

A short description of series [6]: Bioavailability in dog (dose of 1.0 mg/kg i.v.) 0.5 hr. The format is ADME, organism-based, Canis lupus familiaris. Particulars: in vivo, iv.
A further series in a line: physchem. The settings on record: octanol/water.
For series [7], the target named is Angiotensin II receptor (Rattus norvegicus) (UniProt P29089+P25095+P35351). The experiment in a line: Ratio of receptor binding affinity AT2/AT1 in rat adrenal tissue.
For series [8], the target named is T4, Angiotensin II receptor (AT-1) type-1 (Rattus norvegicus, UniProt P29089+P25095).
T4 sequence (P29089 whole entry): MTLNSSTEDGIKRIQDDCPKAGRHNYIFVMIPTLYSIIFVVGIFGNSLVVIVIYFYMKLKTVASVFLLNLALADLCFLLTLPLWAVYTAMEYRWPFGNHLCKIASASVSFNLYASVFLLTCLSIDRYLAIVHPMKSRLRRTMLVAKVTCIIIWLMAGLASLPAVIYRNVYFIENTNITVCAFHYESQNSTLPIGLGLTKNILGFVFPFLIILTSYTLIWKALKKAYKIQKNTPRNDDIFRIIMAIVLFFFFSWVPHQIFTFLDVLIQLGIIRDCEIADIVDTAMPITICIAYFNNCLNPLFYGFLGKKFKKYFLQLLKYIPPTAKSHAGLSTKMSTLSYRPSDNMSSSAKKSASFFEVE
T4 sequence (P25095 whole entry): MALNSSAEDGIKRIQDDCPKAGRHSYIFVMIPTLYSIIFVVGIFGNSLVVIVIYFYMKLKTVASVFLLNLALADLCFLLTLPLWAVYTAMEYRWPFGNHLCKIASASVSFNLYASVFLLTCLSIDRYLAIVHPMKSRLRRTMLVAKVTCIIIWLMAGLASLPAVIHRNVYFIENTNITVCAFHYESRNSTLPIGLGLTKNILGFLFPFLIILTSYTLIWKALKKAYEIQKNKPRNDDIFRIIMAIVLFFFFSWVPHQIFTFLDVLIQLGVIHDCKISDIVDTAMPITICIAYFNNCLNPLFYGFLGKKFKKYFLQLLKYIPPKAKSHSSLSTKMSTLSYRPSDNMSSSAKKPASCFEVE
The experiment in a line: Binding affinity against AT1 receptor in rat adrenal tissue. The series is classed as tissue-based.

A short description of series [9]: Ratio of receptor binding affinity of compound against rat midbrain tissue (AT2) to that of rabbit aorta (AT1). The series is classed as tissue-based.
Series [10] has as its target T1, Angiotensin II receptor (Homo sapiens). The series is described as follows: Ratio of receptor binding affinity AT2/AT1 in human adrenal tissue in the presence of 2 mg/ml bovine serum albumin. The series is classed as protein assay.
Series [11] is described as follows: Bioavailability in dog (dose 3.0 mg/kg p.o.). The settings on record: in vivo, po. The format is ADME, organism-based, Canis lupus familiaris.

Each structure is given as a SMILES string. Substitutions are numbered along the chain they refer to. Where only a bound is given, the exact number is not on record here.

T1 sequence (P30556 whole entry, looked up): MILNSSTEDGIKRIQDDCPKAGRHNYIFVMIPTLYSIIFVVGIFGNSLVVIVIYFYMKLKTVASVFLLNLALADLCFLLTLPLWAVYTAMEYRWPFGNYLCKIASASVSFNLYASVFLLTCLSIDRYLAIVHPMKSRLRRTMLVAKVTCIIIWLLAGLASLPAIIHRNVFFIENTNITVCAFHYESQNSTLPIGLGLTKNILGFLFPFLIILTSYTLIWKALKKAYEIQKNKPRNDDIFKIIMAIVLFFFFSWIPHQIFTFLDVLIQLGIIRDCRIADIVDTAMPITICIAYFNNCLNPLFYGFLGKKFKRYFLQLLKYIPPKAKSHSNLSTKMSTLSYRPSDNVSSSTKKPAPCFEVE
T1 sequence (P50052 whole entry, looked up): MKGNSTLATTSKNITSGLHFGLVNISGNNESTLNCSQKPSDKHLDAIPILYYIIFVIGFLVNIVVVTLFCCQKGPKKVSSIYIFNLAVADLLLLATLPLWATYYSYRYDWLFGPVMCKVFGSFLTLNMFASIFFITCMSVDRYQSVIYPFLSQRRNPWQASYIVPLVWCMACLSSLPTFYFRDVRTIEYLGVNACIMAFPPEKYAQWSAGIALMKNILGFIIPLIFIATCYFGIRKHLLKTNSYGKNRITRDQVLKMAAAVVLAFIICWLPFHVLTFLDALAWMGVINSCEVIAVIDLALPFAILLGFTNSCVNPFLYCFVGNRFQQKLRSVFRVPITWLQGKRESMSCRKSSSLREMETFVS
Description for physchem: Partition coefficient (logP)

Consider `CCCCCN(C(=O)c1ccccc1)c1ccc2ncn(Cc3ccc(-c4ccccc4-c4nnnn4C)cc3)c(=O)c2c1`, for which the Duration in the series filed under Rattus norvegicus [1] and in the series listed under Rattus norvegicus [4] was more than 3 h in each case. In addition, the Ratio in series [2] was 1. The IC50 in series [3] worked out at 1.7 nM; in series [5], 6.9 nM. For the same molecule, in [6], the bioavailability is 73%. The same molecule registered a logP in the series “physchem” of 5.1.

Regarding `Cn1nnnc1-c1ccccc1-c1ccc(Cn2cnc3ccc(N(Cc4ccccn4)C(=O)c4ccncc4)cc3c2=O)cc1`, the Duration in the series filed under Rattus norvegicus [1] and in the series filed under Rattus norvegicus [4] was less than 3 h throughout. The Ratio in series [2] came to 2.3; in series [7], 1.6. Further, the IC50 in [3] was 9.7 nM; in series [5], 4.4 nM; in [8], 2.9 nM. In the series “physchem”, the lipophilicity (logP) was determined as 2.7.

In the case of `Cn1nnnc1-c1ccccc1-c1ccc(Cn2cnc3ccc(N(Cc4ccccn4)C(=O)c4ccco4)cc3c2=O)cc1`, the Duration is more than 3 h in the series listed under Rattus norvegicus [1] and less than 3 h in the series listed under Rattus norvegicus [4]. Besides, the Ratio in series [2] and in series [7] was 0.3 in each case. Moreover, the figures for the IC50 in series [3], in series [5] and in series [8] were 7.5 nM, 10.6 nM and 2.1 nM, respectively. The logP in “physchem” was determined as 3.2.

With `CCCCN(C(=O)c1ccc(OP(=O)([O-])[O-])cc1)c1ccc2ncn(Cc3ccc(-c4ccccc4-c4nnnn4C)cc3)c(=O)c2c1.[Na+].[Na+]`, the Duration in the series listed under Rattus norvegicus [1] was more than 3 h; in the series listed under Rattus norvegicus [4], less than 3 h. Further, the results for the IC50 in [3], in series [5] and in [8] were 2.2 nM, 21.4 nM and 3.9 nM, respectively. Also, the Ratio in [7] stood at 5.4; in [9] it was 1.9; in series [10], 10.9. In “physchem”, the logP was found to be 2.9.

Consider `Cn1nnnc1-c1ccccc1-c1ccc(Cn2cnc3ccc(N(Cc4cccnc4)C(=O)c4ccccc4)cc3c2=O)cc1`, for which the Duration in the series filed under Rattus norvegicus [1] and in the series listed under Rattus norvegicus [4] was more than 3 h in each case. Further, the Ratio came to 1.3 in [2] and 2.1 in series [7]. Besides, the IC50 in series [3] is 1.7 nM; in [5], 0.9 nM; in series [8], 0.3 nM. Moreover, the bioavailability in series [6] worked out at 84%; in [11], 56%. Besides, the logP in the series “physchem” stood at 3.4.

A word on the IC50: it is the concentration that gives 50% inhibition. Read a low IC50 as greater potency. Usually bioavailability stands for the share of a dose that reaches the circulation, judged against a reference dose that is usually intravenous. The low end stands for little systemic uptake, the high end for much systemic uptake. Usually logP stands for a log measure of how a compound divides between an organic and an aqueous phase. Read a high logP as a more lipophilic compound.
